Experimental findings from PMC3529812 (Journal of immunology (Baltimore, Md. : 1950), 2012) are described below.

One experiment deals with HLA-A2 (Homo sapiens, UniProt P04439, D140Y/D185E/D98H/E176V/E277Q/G131W/G231S/I119V/I121R/I166T/I218V/L300P/L318F/N151K/N90K/P208A/P217A/Q86G/Q94H/R138H/R169H/T345S). As to the kind of experiment: T2 HLA-A2 stabilization assay. The experiment is classed as cell-based.
The next experiment has as its system 20S proteasome. In words: 20S proteasome cleavage assay with LC-MS of cleavage products. Format: biochemical, human. To be noted: 10 μM lactacystin; substrate 23 mer; compared to uninhibited proteasome reaction.

As usually defined, the EC50 is the midpoint of the concentration-response curve. Read a low EC50 as higher potency in that assay. On HLA-A2, `CC(C)C[C@H](NC(=O)[C@@H](N)CO)C(=O)N[C@@H](C)C(=O)N[C@@H](Cc1ccccc1)C(=O)N[C@@H](CC(C)C)C(=O)N1CCC[C@H]1C(=O)N[C@@H](CCC(=O)O)C(=O)N[C@@H](CO)C(=O)N[C@@H](Cc1ccccc1)C(=O)N[C@@H](CC(=O)O)C(=O)O` [p373–382] had an EC50 of 1800 nM. As for `CC(=O)N[C@@H](CSC(=O)[C@]1([C@@H](O)C(C)C)NC(=O)[C@H](C)[C@@H]1O)C(=O)O` [lactacystin], the “Effect of lactacystin on generation of p373–382 by proteasome” value with 20S proteasome was “not completely blocked”.
